Source: US20250270170A1, “2,3-DIMETHOXY-5-METHYL-1,4-BENZOQUINONE ALKYL ALCOHOL DERIVATIVE AND USE THEREOF” (BEIJING ANJIANXI BIO-MEDICAL TECHNOLOGY CO., LTD., priority 2021, published 2025)
Marks after values point to notes of the source that are not given here.

Experiments:
[1] = Example 9: serum urea nitrogen (BUN) at the end of the assay; assay type: in vivo, nude mice; conditions: mouse, in vivo
Procedure: On the last day of the assay, CO2 inhalation anesthesia was used on the animals 1 hour after the administration (R01). Blood was collected through the heart, and a part of the whole blood was added with EDTA-K2 for anticoagulation. The plasma was separated by centrifugation at 4° C. and 1500 g for 10 minutes. The plasma was collected, and stored in a −40° C. to −20° C. freezer (if necessary, it can be used for the determination of the plasma drug concentration). No anticoagulant was added to the other part of the whole blood, and the serum was separated by centrifugation after the blood coagulated, which was used for the detection of blood urea nitrogen. After the blood collection, the tumor tissue was collected, weighed and photographed. Then, the tumor was divided into two parts, quickly cryopreserved by liquid nitrogen, and transferred to a −90° C. to −60° C. freezer for storage. Bilateral kidneys were collected and fixed in 10% formalin.

[2] = system: human colorectal cancer HT29 transplanted tumor; assay: Example 10: tumor growth in HT-29 transplanted tumor model; assay type: in vivo, nude mice; conditions: for Mean tumor volume ± SE / tumor growth inhibition rate: HT-29 model, DDP 5 mg/kg i.p. QW × 3, R01 18 mg/kg i.g. BID × 28
Procedure: The human colorectal cancer cell lines HT-29 were obtained from the Cell Bank of the Type Culture Collection Committee of Chinese Academy of Sciences (CAS, cryopreserved in liquid nitrogen in this assay).
HT-29 cells were routinely cultured in a McCoy […] containing 10% fetal bovine serum under culture conditions of 37° C. and 5% CO2. The cells were digested with 0.25% trypsin, and passaged according to the cell growth conditions with a passaging ratio of 1:3 to 1:4.
On D1 of the assay, the HT-29 cells in the logarithmic growth phase were collected, counted and resuspended in serum-free McCoy, and the cell concentration was adjusted to 4×10^7 cells/mL. The cells were pipetted with a pipette to disperse them evenly, and the cells were put into a 50-mL centrifuge tube, which was placed in an ice box. A 1-mL syringe was used to draw the cell suspension, which was injected subcutaneously into the axilla of the front right limb of a nude mouse. Each animal was inoculated with 100 μL (4×10^6 cells/mouse) to establish a HT-29 transplanted tumor model in nude mice. After the inoculation, the animal status and tumor growth were regularly observed. On D12, the tumor diameter was measured using an electronic vernier caliper. The data were input into an Excel spreadsheet to calculate the tumor volume. Tumor-bearing mice in good health and with similar tumor volumes (103 to 179 mm^3) were selected and divided into groups using randomized block method. After the start of the assay, the tumor diameter was measured regularly, the tumor volume was calculated, and the animal body weight was also weighed and recorded.

[3] = Example 7: serum UREA content; assay type: in vivo, nude mice; conditions: mouse, in vivo, po, 16 mg/kg
[4] = system: human gastric cancer NCI-N87 transplanted tumor; assay: Example 7: tumor growth in NCI-N87 transplanted tumor model, alone and combined with DDP; assay type: in vivo, nude mice; conditions: for Mean tumor volume / tumor growth inhibition rate (TGI): R01 16 mg/kg PO QD×32
[5] = Example 3: body weight of NCI-N87 tumor-bearing nude mice; assay type: in vivo, BALB/c nude mice
Procedure: The NCI-N87 cells in the logarithmic growth phase were collected, counted and resuspended in a serum-free RPMI-1640 medium, and the cell concentration was adjusted to 5×10^7 cells/mL. The cells were pipetted with a pipette to disperse them evenly, and the cells were put into a 50-mL centrifuge tube, which was placed in an ice box. A 1-mL syringe was used to draw the cell suspension, which was injected subcutaneously into the axilla of the front right limb of a nude mouse. Each animal was inoculated with 100 μL (5×10^6 cells/mouse) to establish an NCI-N87 transplanted tumor model in nude mice. After the inoculation, the animal status and tumor growth were regularly observed, and the tumor diameter was measured using an electronic vernier caliper. The data were input into an Excel spreadsheet to calculate the tumor volume. When the tumor volume reached 100 to 300 mm^3, 72 animals in good health and with similar tumor volumes were selected and divided into 9 groups (n=8) using randomized block method. The day of grouping was regarded as the first day of the assay (D1). After the start of the assay, the tumor diameter was measured twice a week, the tumor volume was calculated, and the animal body weight was also weighed and recorded. [table] The calculation formula of animal weight loss rate is: wherein BWt represents the animal body weight measured each time during the administration period; BWinitial represents the animal body weight when being grouped for administration. The assay data were calculated and processed statistically using Microsoft Office Excel 2007 software. Unless otherwise specified, the data were expressed as mean±standard error (Mean±SE), and t-test was used for comparison between two groups.

COC1=C(OC)C(=O)C(CCCCCCCCCCOC(=O)Cc2c(C)n(C(=O)c3ccc(Cl)cc3)c3ccc(OC)cc23)=C(C)C1=O [compound of formula (I)]
BUN (mmol/L) Mean ± SE ([1]; 18 mg/kg): 22.51 ± 1.24 mmol/L
BUN (mmol/L) Mean ± SE ([1]; 36 mg/kg): 22.69 ± 1.17 mmol/L
Mean tumor volume ± SE ([2]; D 12 (grouping)): 134 ± 9 mm^3
Mean tumor volume ± SE ([2]; D 15): 178 ± 7 mm^3
tumor growth inhibition rate ([2]; D 15): (40%)
Mean tumor volume ± SE ([2]; D 19): 280 ± 9** mm^3
tumor growth inhibition rate ([2]; D 19): (42%)
Mean tumor volume ± SE ([2]; D 22): 393 ± 19** mm^3
tumor growth inhibition rate ([2]; D 22): (34%)
Mean tumor volume ± SE ([2]; D 26): 532 ± 31** mm^3
tumor growth inhibition rate ([2]; D 26): (31%)
Mean tumor volume ± SE ([2]; D 29): 631 ± 40** mm^3
tumor growth inhibition rate ([2]; D 29): (38%)
Mean tumor volume ± SE ([2]; D 33): 832 ± 59** mm^3
tumor growth inhibition rate ([2]; D 33): (36%)
Mean tumor volume ± SE ([2]; D 36): 903 ± 73** mm^3
tumor growth inhibition rate ([2]; D 36): (37%)
Mean tumor volume ± SE ([2]; D 40): 1070 ± 94** mm^3
tumor growth inhibition rate ([2]; D 40): (33%)
anti-tumor effect in combination with cisplatin (summary) ([2]; HT-29 transplanted tumor model in nude mice): synergistic anti-tumor effect
Serum UREA content, Mean [3]: 7.83 mmol serum^−1
Mean tumor volume ([4]; D12): 155 ± 4 mm^3
Mean tumor volume ([4]; D16): 200 ± 6** mm^3
tumor growth inhibition rate (TGI) ([4]; D16): 29%
Mean tumor volume ([4]; D19): 263 ± 14** mm^3
tumor growth inhibition rate (TGI) ([4]; D19): 27%
Mean tumor volume ([4]; D23): 336 ± 18** mm^3
tumor growth inhibition rate (TGI) ([4]; D23): 30%
Mean tumor volume ([4]; D26): 421 ± 26** mm^3
tumor growth inhibition rate (TGI) ([4]; D26): 33%
Mean tumor volume ([4]; D30): 509 ± 46** mm^3
tumor growth inhibition rate (TGI) ([4]; D30): 43%
Mean tumor volume ([4]; D33): 577 ± 52** mm^3
tumor growth inhibition rate (TGI) ([4]; D33): 45%
Mean tumor volume ([4]; D37): 681 ± 63** mm^3
tumor growth inhibition rate (TGI) ([4]; D37): 46%
Mean tumor volume ([4]; D40): 758 ± 74** mm^3
tumor growth inhibition rate (TGI) ([4]; D40): 47%
Mean tumor volume ([4]; D44): 871 ± 94** mm^3
tumor growth inhibition rate (TGI) ([4]; D44): 45%
effect on growth of the NCI-N87 transplanted tumor (summary) ([4]; R01 alone 16 mg/kg QD, combinations: R01 3, 6, 16 mg/kg (QD) with DDP): significant inhibitory effect
Mean animal body weight ([5]; D13, 2 mg/kg i.g. BID×28): 18.3 ± 0.4 g
Mean animal body weight ([5]; D13, 6 mg/kg i.g. BID×28): 17.6 ± 0.3 g
Mean animal body weight ([5]; D13, 18 mg/kg i.g. BID×28): 17.9 ± 0.5 g
Mean animal body weight ([5]; D16, 2 mg/kg i.g. BID×28): 18.2 ± 0.5 g
body weight loss rate ([5]; D16, 2 mg/kg i.g. BID×28): (0.41%)
Mean animal body weight ([5]; D16, 6 mg/kg i.g. BID×28): 17.6 ± 0.3 g
body weight loss rate ([5]; D16, 6 mg/kg i.g. BID×28): (0.28%)
Mean animal body weight ([5]; D16, 18 mg/kg i.g. BID×28): 17.7 ± 0.4 g
body weight loss rate ([5]; D16, 18 mg/kg i.g. BID×28): (1.0%)
Mean animal body weight ([5]; D20, 2 mg/kg i.g. BID×28): 18.2 ± 0.4 g
body weight loss rate ([5]; D20, 2 mg/kg i.g. BID×28): (0.27%)
Mean animal body weight ([5]; D20, 6 mg/kg i.g. BID×28): 17.5 ± 0.4 g
body weight loss rate ([5]; D20, 6 mg/kg i.g. BID×28): (0.50%)
Mean animal body weight ([5]; D20, 18 mg/kg i.g. BID×28): 17.8 ± 0.3 g
body weight loss rate ([5]; D20, 18 mg/kg i.g. BID×28): (0.56%)
Mean animal body weight ([5]; D23, 2 mg/kg i.g. BID×28): 18.5 ± 0.5 g
body weight loss rate ([5]; D23, 2 mg/kg i.g. BID×28): (−1.0%)
Mean animal body weight ([5]; D23, 6 mg/kg i.g. BID×28): 18.1 ± 0.5 g
body weight loss rate ([5]; D23, 6 mg/kg i.g. BID×28): (−2.7%)
Mean animal body weight ([5]; D23, 18 mg/kg i.g. BID×28): 18.0 ± 0.4 g
body weight loss rate ([5]; D23, 18 mg/kg i.g. BID×28): (−0.42%)
Mean animal body weight ([5]; D27, 2 mg/kg i.g. BID×28): 18.7 ± 0.5 g
body weight loss rate ([5]; D27, 2 mg/kg i.g. BID×28): (−2.5%)
Mean animal body weight ([5]; D27, 6 mg/kg i.g. BID×28): 18.3 ± 0.5 g
body weight loss rate ([5]; D27, 6 mg/kg i.g. BID×28): (−3.7%)
Mean animal body weight ([5]; D27, 18 mg/kg i.g. BID×28): 18.1 ± 0.3 g
body weight loss rate ([5]; D27, 18 mg/kg i.g. BID×28): (−1.0%)
Mean animal body weight ([5]; D30, 2 mg/kg i.g. BID×28): 18.9 ± 0.4 g
body weight loss rate ([5]; D30, 2 mg/kg i.g. BID×28): (−3.4%)
Mean animal body weight ([5]; D30, 6 mg/kg i.g. BID×28): 18.3 ± 0.4 g
body weight loss rate ([5]; D30, 6 mg/kg i.g. BID×28): (−4.0%)
Mean animal body weight ([5]; D30, 18 mg/kg i.g. BID×28): 18.4 ± 0.4 g
body weight loss rate ([5]; D30, 18 mg/kg i.g. BID×28): (−2.7%)
Mean animal body weight ([5]; D34, 2 mg/kg i.g. BID×28): 19.3 ± 0.5 g
body weight loss rate ([5]; D34, 2 mg/kg i.g. BID×28): (−5.8%)
Mean animal body weight ([5]; D34, 6 mg/kg i.g. BID×28): 18.5 ± 0.4 g
body weight loss rate ([5]; D34, 6 mg/kg i.g. BID×28): (−5.1%)
Mean animal body weight ([5]; D34, 18 mg/kg i.g. BID×28): 18.7 ± 0.4 g
body weight loss rate ([5]; D34, 18 mg/kg i.g. BID×28): (−4.3%)
Mean animal body weight ([5]; D37, 2 mg/kg i.g. BID×28): 19.5 ± 0.5 g
body weight loss rate ([5]; D37, 2 mg/kg i.g. BID×28): (−6.5%)
Mean animal body weight ([5]; D37, 6 mg/kg i.g. BID×28): 18.6 ± 0.4 g
body weight loss rate ([5]; D37, 6 mg/kg i.g. BID×28): (−5.8%)
Mean animal body weight ([5]; D37, 18 mg/kg i.g. BID×28): 18.8 ± 0.4 g
body weight loss rate ([5]; D37, 18 mg/kg i.g. BID×28): (−4.8%)
Mean animal body weight ([5]; D44, 2 mg/kg i.g. BID×28): 19.2 ± 0.6 g
body weight loss rate ([5]; D44, 2 mg/kg i.g. BID×28): (−5.2%)
Mean animal body weight ([5]; D44, 6 mg/kg i.g. BID×28): 19.0 ± 0.5 g
body weight loss rate ([5]; D44, 6 mg/kg i.g. BID×28): (−8.0%)
Mean animal body weight ([5]; D44, 18 mg/kg i.g. BID×28): 19.1 ± 0.4 g
body weight loss rate ([5]; D44, 18 mg/kg i.g. BID×28): (−6.9%)
effect on body weight compared with blank control group ([5]; NCI-N87 tumor-bearing nude mice, summary of Table 6): no significant effect
